pEC50: −log10 of the molar value. A value given as a limit tells only on which side of the number the result lay.

The text below walks through data of patent US20260167615A1, “COMPOUNDS AND COMPOSITIONS AS GPR52 MODULATORS” (Neurocrine Biosciences, Inc., priority 2022, published 2026).

The target of the experiment is recombinant human GPR52 (Homo sapiens, UniProt Q9Y2T5). Nature of the experiment: HTRF cAMP assay, GPR52 activity (Example A). The format is cell-based. The conditions noted are these: for pEC50: average EC50 (n=1 to 15), Flp-In-CHO cells stably expressing recombinant human GPR52, cAMP HTRF, read-out: EC50 (N=); for Emax: maximum cAMP at 10 μM or 31.6 μM test compound, as percentage of Emax of control compound 4-(3-(3-fluoro-5-(trifluoromethyl)benzyl)-5-methyl-4,5-dihydro-1H-1,2,4-triazol-1-yl)-2-methylbenzamide. The protocol: Compounds of Formula I were assessed for their ability to modulate GPR52 activity. HTRF CAMP assays were performed using a commercially available assay kit (CAMP Gs HiRange HTRF®, CisBio). Controls and compounds were solubilized in DMSO and 62.5 nanoliters of the diluted compounds were transferred into 384-well NBS assay plates via acoustic or precision low-volume dispensing. Compounds were further diluted to 1× with the addition of 20,000 cells per well. Flp-In™—CHO cells that stably express recombinant human GPR52 were used in the assay.
recombinant human GPR52, sequence (Q9Y2T5 whole entry): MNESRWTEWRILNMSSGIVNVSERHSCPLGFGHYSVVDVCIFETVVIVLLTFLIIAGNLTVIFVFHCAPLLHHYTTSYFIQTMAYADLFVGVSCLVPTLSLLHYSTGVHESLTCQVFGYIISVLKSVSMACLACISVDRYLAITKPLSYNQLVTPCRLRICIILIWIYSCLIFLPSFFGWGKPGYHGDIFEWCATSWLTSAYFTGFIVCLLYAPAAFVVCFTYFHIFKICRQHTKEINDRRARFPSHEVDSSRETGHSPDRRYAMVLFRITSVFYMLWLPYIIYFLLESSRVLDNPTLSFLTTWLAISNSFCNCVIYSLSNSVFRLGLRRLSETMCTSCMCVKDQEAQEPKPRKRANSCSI
Cells were harvested with cell stripper and resuspended in stimulation buffer. After thirty minutes incubation at room temperature, detection reagents were added to each well. Plates were then incubated for an additional 30 minutes at room temperature. CAMP produced by the cells during the first incubation period competes with d2-labeled CAMP for binding to an anti-cAMP monoclonal antibody labeled with europium cryptate. The measured signal was inversely proportional to the concentration of cAMP produced by the cells and this signal was quantified using a PHERAstar® multi-mode plate reader.
Dose-response curves were generated from the HTRF counts that have been transformed based on a CAMP referenced curve, and then normalized to the positive control. EC50 values were obtained using a nonlinear regression curve-fitting program. […] The Emax (Table 13) is the maximum amount of cAMP (nM) produced by incubation of the cells with 10 μM or 31.6 μM of a test compound. The compound is defined by the top plateau of the sigmoid curve fit. The curve is then normalized to a control compound, in this case 4-(3-(3-fluoro-5-(trifluoromethyl)benzyl)-5-methyl-4,5-dihydro-1H-1,2,4-triazol-1-yl)-2-methylbenzamide (Tokumaru, K., et al., “Design, synthesis, and pharmacological evaluation of 4-azolyl-benzamide derivatives as novel GPR52 agonists”, Bioorganic & Medicinal Chemistry, Volume 25, Issue 12, June 2017, pages 3098-3115), and expressed as a percentage of the Emax of that control compound.
Background: TR-FRET usually uses a lanthanide donor and a delayed reading to cut background.

Usually pEC50 stands for −log10 of the EC50, conventionally taken in molar units. In general, Emax refers to the maximal effect, on the per cent scale that the assay sets. As for `CCc1cc(-c2cc(Oc3cnc4c(C(F)(F)F)nn(C)c4c3)ccn2)ccc1C(=O)NC` [Example 61, 2-ethyl-N-methyl-4-(4-((1-methyl-3-(trifluoromethyl)-1H-pyrazolo[4,3-b]pyridin-6-yl)oxy)pyridin-2-yl)benzamide], the pEC50 is 6.00 to 7.00 and the Emax is 81%.

Regarding `CNC(=O)c1ccc(-c2cc(Oc3ccc4cnn(C)c4c3)ccn2)cc1C` [Example 62, N,2-dimethyl-4-(4-((1-methyl-1H-indazol-6-yl)oxy)pyridin-2-yl)benzamide], the pEC50 is 6.00 to 7.00 and the Emax is 84%.

Regarding `CCNC(=O)c1ccc(-c2cc(Oc3ccc4cnn(C)c4c3)ccn2)cc1C` [Example 63, N-ethyl-2-methyl-4-(4-((1-methyl-1H-indazol-6-yl)oxy)pyridin-2-yl)benzamide], the negative logarithm of the EC50 (pEC50) is 6.00 to 7.00 and the maximal effect (Emax) amounted to 70%.

In the case of `CCc1cc(-c2cc(Oc3ccc4c(C(F)(F)F)nn(C)c4c3)ccn2)ccc1C(=O)NC` [Example 64, 2-ethyl-N-methyl-4-(4-((1-methyl-3-(trifluoromethyl)-1H-indazol-6-yl)oxy)pyridin-2-yl)benzamide], the negative-log EC50 (pEC50) was 6.00 to 7.00 and the maximal response (Emax) amounted to 81%.

Take `CCc1cc(-c2cccc(Oc3ccc4cnn(C)c4c3)c2)ccc1C(=O)NC` [Example 65, 3-ethyl-N-methyl-3′-((1-methyl-1H-indazol-6-yl)oxy)-[1,1′-biphenyl]-4-carboxamide]: the pEC50 was 5.70 to 6.00 and the maximum response (Emax) came to 83%.

For the molecule `CCc1cc(-c2cccc(Oc3cnc4c(C)nn(C)c4c3)c2)ccc1C(=O)NC` [Example 66, 3′-((1,3-dimethyl-1H-pyrazolo[4,3-b]pyridin-6-yl)oxy)-3-ethyl-N-methyl-[1,1′-biphenyl]-4-carboxamide], the negative-log EC50 (pEC50) is 6.00 to 7.00 and the Emax is 87%.

Regarding `Cc1cc(-c2cc(Oc3ccc4c(c3)CCO4)ccn2)ccc1C(N)=O` [Example 67, 4-(4-((2,3-dihydrobenzofuran-5-yl)oxy)pyridin-2-yl)-2-methylbenzamide], the negative-log EC50 (pEC50) was 6.00 to 7.00 and the Emax came to 129%.

For the molecule `CCc1cc(-c2cc(Oc3ccc4c(c3)NCCO4)ccn2)ccc1C(N)=O` [Example 68, 4-(4-((3,4-dihydro-2H-benzo[b][1,4]oxazin-6-yl)oxy)pyridin-2-yl)-2-ethylbenzamide], the pEC50 was more than 7.60 and the maximal response (Emax) was found to be 131%.

For `Cc1cc(-c2cc(Oc3ccc4c(c3)NCCO4)ccn2)ccc1C(N)=O` [Example 69, 4-(4-((3,4-dihydro-2H-benzo[b][1,4]oxazin-6-yl)oxy)pyridin-2-yl)-2-methylbenzamide], the negative-log EC50 (pEC50) is more than 7.60 and the Emax turned out to be 119%.

`CCc1cc(-c2cc(Oc3ccc4ncccc4c3)ccn2)ccc1C(N)=O` [Example 70, 2-ethyl-4-(4-(quinolin-6-yloxy)pyridin-2-yl)benzamide]: the pEC50 was 6.00 to 7.00 and the Emax was found to be 126%.

Turning to `CCc1cc(-c2cc(Oc3ccc4cnccc4c3)ccn2)ccc1C(N)=O` [Example 71, 2-ethyl-4-(4-(isoquinolin-6-yloxy)pyridin-2-yl)benzamide], the pEC50 is 7.00 to 7.60 and the Emax was 107%.

Regarding `CCc1cc(-c2cc(Oc3cc(F)c4cnn(C)c4c3)cc3nccn23)ccc1C(N)=O` [Example 72, 2-ethyl-4-(7-((4-fluoro-1-methyl-1H-indazol-6-yl)oxy)imidazo[1,2-a]pyridin-5-yl)benzamide], the pEC50 is 7.00 to 7.60 and the maximal effect (Emax) worked out at 69%.

Consider `CCc1cc(-c2cc(Oc3ccc4ccncc4c3)ccn2)ccc1C(N)=O` [Example 73, 2-ethyl-4-(4-(162yridine162ine-7-yloxy)162yridine-2-yl)benzamide], for which the pEC50 is 6.00 to 7.00 and the maximum response (Emax) amounted to 66%.

On to `Cc1cc(-c2cc(Oc3ccc4ncccc4c3)ccn2)ccc1C(N)=O` [Example 74, 2-methyl-4-(4-(quinolin-6-yloxy)pyridin-2-yl)benzamide], for which the pEC50 was 6.00 to 7.00 and the maximum response (Emax) is 95%.

`NC(=O)c1ccc(-c2cc(Oc3ccc4ncccc4c3)ccn2)cc1C(F)(F)F` [Example 75, 4-(4-(quinolin-6-yloxy)pyridin-2-yl)-2-(trifluoromethyl)benzamide]: the negative logarithm of the EC50 (pEC50) was 6.00 to 7.00 and the Emax was determined as 101%.

Regarding `NC(=O)c1ccc(-c2cc(Oc3ccc4ncccc4c3)ccn2)cc1Cl` [Example 76, 2-chloro-4-(4-(quinolin-6-yloxy)pyridin-2-yl)benzamide], the pEC50 was 6.00 to 7.00 and the Emax turned out to be 91%.

With `CCc1cc(-c2cc(Oc3cnc4c(c3)c(C(F)(F)F)nn4C)cc3nccn23)ccc1C(N)=O` [Example 77, 2-ethyl-4-(7-((1-methyl-3-(trifluoromethyl)-1H-pyrazolo[3,4-b]pyridin-5-yl)oxy)imidazo[1,2-a]pyridin-5-yl)benzamide], the pEC50 is 6.00 to 7.00 and the Emax was determined as 75%.

Regarding `CCc1cc(-c2cc(Oc3cnc4c(c3)c(C)nn4C)cc3nccn23)ccc1C(N)=O` [Example 78, 4-(7-((1,3-dimethyl-1H-pyrazolo[3,4-b]pyridin-5-yl)oxy)imidazo[1,2-a]pyridin-5-yl)-2-ethylbenzamide], the pEC50 is 6.00 to 7.00 and the Emax was 94%.

For `Cc1cc(-c2cc(Oc3ccc4ccncc4c3)ccn2)ccc1C(N)=O` [Example 79, 4-(4-(isoquinolin-7-yloxy)pyridin-2-yl)-2-methylbenzamide], the negative-log EC50 (pEC50) was 6.00 to 7.00 and the maximal response (Emax) came out at 60%.

On to `NC(=O)c1ccc(-c2cc(Oc3ccc4ccncc4c3)ccn2)cc1Cl` [Example 80, 2-chloro-4-(4-(isoquinolin-7-yloxy)pyridin-2-yl)benzamide], for which the pEC50 is 6.00 to 7.00 and the Emax was found to be 54%.

Consider `CCc1cc(-c2cc(Oc3cnc4c(C)nn(C)c4c3)cc3nccn23)ccc1C(N)=O` [Example 81, 4-(7-((1,3-dimethyl-1H-pyrazolo[4,3-b]pyridin-6-yl)oxy)imidazo[1,2-a]pyridin-5-yl)-2-ethylbenzamide], for which the negative logarithm of the EC50 (pEC50) was 6.00 to 7.00 and the maximal response (Emax) worked out at 76%.

For the molecule `NC(=O)c1ccc(-c2cc(Oc3ccc4cnccc4c3)ccn2)cc1Cl` [Example 82, 2-chloro-4-(4-(isoquinolin-6-yloxy)pyridin-2-yl)benzamide], the pEC50 was 6.00 to 7.00 and the maximum response (Emax) came out at 110%.

Take `Cc1cc(-c2cc(Oc3ccc4occc4c3)ccn2)ccc1C(N)=O` [Example 83, 4-(4-(benzofuran-5-yloxy)pyridin-2-yl)-2-methylbenzamide]: the negative-log EC50 (pEC50) was 6.00 to 7.00 and the Emax worked out at 153%.

Consider `Cc1cc(-c2cc(Oc3ccc4c(c3)CCC4=O)ccn2)ccc1C(N)=O` [Example 84, 2-methyl-4-(4-((1-oxo-2,3-dihydro-1H-inden-5-yl)oxy)pyridin-2-yl)benzamide], for which the negative logarithm of the EC50 (pEC50) was 6.00 to 7.00 and the Emax was found to be 123%.

For the molecule `Cc1cc(-c2cc(Oc3ccc4c(c3)OCO4)ccn2)ccc1C(N)=O` [Example 85, 4-(4-(benzo[d][1,3]dioxol-5-yloxy)pyridin-2-yl)-2-methylbenzamide], the pEC50 is 6.00 to 7.00 and the Emax stood at 106%.

For `Cc1nc2cc(Oc3ccnc(-c4ccc(C(N)=O)c(C)c4)c3)ccc2s1` [Example 86, 2-methyl-4-(4-((2-methylbenzo[d]thiazol-5-yl)oxy)pyridin-2-yl)benzamide], the pEC50 is 6.00 to 7.00 and the maximum response (Emax) turned out to be 86%.

Regarding `Cc1cc(-c2cc(Oc3ccc4ccoc4c3)ccn2)ccc1C(N)=O` [Example 87, 4-(4-(benzofuran-6-yloxy)pyridin-2-yl)-2-methylbenzamide], the negative logarithm of the EC50 (pEC50) is 6.00 to 7.00 and the Emax was found to be 68%.

Consider `Cc1cc(-c2cc(Oc3ccc4cccnc4c3)ccn2)ccc1C(N)=O` [Example 88, 2-methyl-4-(4-(quinolin-7-yloxy)pyridin-2-yl)benzamide], for which the pEC50 was 6.00 to 7.00 and the maximum response (Emax) is 67%.

On to `Cc1cc(-c2cc(Oc3ccc4c(c3)OC(F)(F)O4)ccn2)ccc1C(N)=O` [Example 89, 4-(4-((2,2-difluorobenzo[d][1,3]dioxol-5-yl)oxy)pyridin-2-yl)-2-methylbenzamide], for which the pEC50 is 6.00 to 7.00 and the Emax was found to be 95%.

Consider `Cc1cc(-c2cc(Oc3cccc4occc34)ccn2)ccc1C(N)=O` [Example 90, 4-(4-(benzofuran-4-yloxy)pyridin-2-yl)-2-methylbenzamide], for which the negative-log EC50 (pEC50) was 5.70 to 6.00 and the Emax was determined as 107%.

Consider `Cc1cc(-c2cc(Oc3ccc4cnccc4c3)ccn2)ccc1C(N)=O` [Example 93, 4-(4-(isoquinolin-6-yloxy)pyridin-2-yl)-2-methylbenzamide], for which the pEC50 is 6.00 to 7.00 and the maximum response (Emax) is 118%.
